Measurements reported in US20240124504A1, “AROMATIC HETEROCYCLIC COMPOUND, AND PHARMACEUTICAL COMPOSITION AND APPLICATION THEREOF” (GT APEIRON THERAPEUTICS LIMITED, priority 2020, published 2024).

Key:
[1] = Caco-2 membrane permeability and efflux rate; format: in vitro ADME; settings: human, Caco-2, Caco-2, 5 μM
Experimental: The recovered Caco-2 cell suspension was seeded into a […] plate and cultured for 14-18 days. After being cultured for 14 days, the cells were fused and differentiated to be ready for a transport experiment. The Caco-2 cell plate was taken out from the incubator. Stock solutions of a to-be-tested compound and a control compound were formulated with DMSO and diluted with an HBSS (10 mM HEPES, pH 7.4) buffer to a final concentration of 5 μM. A test compound solution and a control drug solution were added to each well (top end) of an insert culture plate, and the HBSS (10 mM HEPES, pH 7.4) buffer was added to each well of a test compound receiving plate (basal end). When measuring the transport rate of the compound from the basal end to the top end, the test compound solution and the control drug solution were added to each well of the receiving plate (basal end), the HBSS (10 mM HEPES, pH 7.4) buffer solution was added to each well (top end) of the insert culture plate for the test compound solution, and incubation was carried out for 2 hours in a CO2 incubator at 37° C. After the transport experiment was completed, vortexing was carried out for 10 minutes at 1000 rpm. After sample quenching at each time point, LC/MS/MS analysis was carried out. A fluorescence value was measured after a two-hour transport experiment, a lucifer yellow solution was added in a transwell chamber (top end), a transport buffer solution was added in the basal end, and incubation was carried out for 30 minutes in the CO2 incubator at 37° C. The solution was taken out directly from the top end and the basal end (using basolateral wells) and transferred to a new 96-well plate. A cell fluorescence value was measured by a microplate reader (to detect membrane integrity), an excitation wavelength was […], and an emission wavelength was […]. All data were calculated by using Microsoft Excel, and a peak area was calculated according to chromatograms. An apparent permeability coefficient (Papp, unit: 10-6, cm/s) and an efflux rate (ER) of the compounds in Caco-2 cells were calculated by the specific concentrations of a receiving end and an administering end.

[2] = test system: ovarian cancer A2780; assay: Cell biological activity detection (CyQuant, 72 hours), A2780; format: cell-based, human; settings: Homo sapiens, A2780, 72 h, A2780 cells, incubation for 72 hours
Method in brief: (§1)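 A2780 and HCC70 cells seeded at 2000/well in RPMI 1640 + 10% FBS, treated next day with 9-point compound dilutions (top 10 μM, 1:4; 0.2% DMSO) for 72 h at 37 °C. Cell number read by CyQuant Direct nucleic acid stain (ex 488 nm); IC50 from dose–response fit.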

[3] = molecular target: T1, CDK12 (aa686-1082)/cyclinK complex (Homo sapiens, UniProt Q9NYV4); assay: In-vitro enzymatic inhibitory activity testing, CDK12 inhibition assay (Caliper EZ Reader II); format: biochemical; settings: CDK12/cyclinK 50 nM, 180 min at 27° C.; read-out: CDK12 IC50
T1 construct: A CDK12 (aa686-1082)/cyclinK complex (50 nM)
Method in brief: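 Caliper EZ Reader II mobility-shift separation of 5-FAM-CDK9tide substrate (2 μM) from phosphoproduct, using 50 nM CDK12 (aa686-1082)/cyclinK in 80 mM MES pH 6.5, 10 mM MgCl2, 0.01% Tween 20, 50 ug/mL BSA. Compound pre-incubated 10 min with enzyme, then substrate/ATP added for 180 min at 27° C; EDTA stop. IC50 by nonlinear dose-response regression.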

[4] = molecular target: CDK2/cyclinE1 complex (Homo sapiens, UniProt P24941); assay: In-vitro enzymatic inhibitory activity testing, CDK2 inhibition assay (Caliper EZ Reader II); format: biochemical; settings: CDK2/cyclinE1 0.5 nM, 180 min at 27° C.
Method in brief: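 CDK2/cyclinE1 (0.5 nM) phosphorylated 5-FAM-CDK7tide (2 μM) in MES buffer pH 6.5 with MgCl2, Tween 20 and BSA. Substrate and product were separated electrophoretically on a Caliper EZ Reader II. IC50 values came from nonlinear dose-response fits.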

[5] = test system: human breast cancer cells HCC70; assay: Cell biological activity detection (CyQuant, 72 hours), HCC70; format: cell-based; settings: Homo sapiens, HCC70, 72 h, incubation for 72 hours
Method in brief: as §1

[6] = molecular target: CDK7/cyclinH/MAT1 complex (Homo sapiens, UniProt P50613); assay: In-vitro enzymatic inhibitory activity testing, CDK7 inhibition assay (Caliper EZ Reader II); format: biochemical; settings: CDK7/cyclinH/MAT1 6 nM, 180 min at 27° C.
Method in brief: (§2)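 Enzyme preincubated 10 min with compound, then peptide substrate plus ATP added in 80 mM MES pH 6.5, 10 mM MgCl2 buffer; 180 min at 27 °C, stopped with EDTA.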

[7] = molecular target: CDK9/cyclinT1 complex (Homo sapiens, UniProt P50750); assay: In-vitro enzymatic inhibitory activity testing, CDK9 inhibition assay (Caliper EZ Reader II); format: biochemical; settings: CDK9/cyclinT1 8 nM, 180 min at 27° C.
Method in brief: as §2

T1 sequence (Q9NYV4 686-1082, species assumed): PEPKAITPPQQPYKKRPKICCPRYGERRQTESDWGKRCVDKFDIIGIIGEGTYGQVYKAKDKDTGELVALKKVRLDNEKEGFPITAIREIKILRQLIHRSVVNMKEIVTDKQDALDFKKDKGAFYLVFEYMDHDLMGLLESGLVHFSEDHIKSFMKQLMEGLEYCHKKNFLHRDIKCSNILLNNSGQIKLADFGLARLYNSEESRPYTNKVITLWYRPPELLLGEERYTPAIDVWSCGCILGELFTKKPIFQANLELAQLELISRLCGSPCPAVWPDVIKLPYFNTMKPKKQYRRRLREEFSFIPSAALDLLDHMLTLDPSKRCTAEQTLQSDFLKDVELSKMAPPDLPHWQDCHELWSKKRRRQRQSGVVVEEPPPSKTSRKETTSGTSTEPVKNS
T1 sequence (O75909 whole entry partner, species assumed, the tested form may be a part): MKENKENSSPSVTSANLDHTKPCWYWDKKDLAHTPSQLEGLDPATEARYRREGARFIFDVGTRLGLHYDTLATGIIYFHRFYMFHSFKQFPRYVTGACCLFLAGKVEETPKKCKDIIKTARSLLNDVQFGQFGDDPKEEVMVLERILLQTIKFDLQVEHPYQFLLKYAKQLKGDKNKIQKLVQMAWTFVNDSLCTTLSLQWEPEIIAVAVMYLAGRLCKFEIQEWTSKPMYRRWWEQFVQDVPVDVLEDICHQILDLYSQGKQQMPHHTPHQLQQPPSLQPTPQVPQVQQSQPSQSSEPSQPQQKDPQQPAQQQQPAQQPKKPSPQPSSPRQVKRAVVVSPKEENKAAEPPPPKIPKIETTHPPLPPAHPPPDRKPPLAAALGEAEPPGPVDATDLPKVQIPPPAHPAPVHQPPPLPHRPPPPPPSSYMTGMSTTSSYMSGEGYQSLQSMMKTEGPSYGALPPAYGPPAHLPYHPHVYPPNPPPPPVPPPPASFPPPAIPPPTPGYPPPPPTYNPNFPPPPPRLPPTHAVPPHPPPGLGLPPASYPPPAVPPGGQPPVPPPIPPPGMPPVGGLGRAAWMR
Sequence of CDK7/cyclinH/MAT1 complex (P50613 whole entry, species assumed): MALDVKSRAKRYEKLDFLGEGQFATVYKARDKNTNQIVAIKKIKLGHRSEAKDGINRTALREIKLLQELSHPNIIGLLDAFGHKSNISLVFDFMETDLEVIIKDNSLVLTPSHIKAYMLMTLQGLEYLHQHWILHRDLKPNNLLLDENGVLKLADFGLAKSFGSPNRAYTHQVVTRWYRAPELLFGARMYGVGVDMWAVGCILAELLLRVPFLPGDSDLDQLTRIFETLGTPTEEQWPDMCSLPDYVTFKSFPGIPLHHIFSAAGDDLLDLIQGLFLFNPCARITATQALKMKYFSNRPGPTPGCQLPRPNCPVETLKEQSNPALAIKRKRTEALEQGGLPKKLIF
Sequence of CDK7/cyclinH/MAT1 complex (P51946 whole entry partner, species assumed): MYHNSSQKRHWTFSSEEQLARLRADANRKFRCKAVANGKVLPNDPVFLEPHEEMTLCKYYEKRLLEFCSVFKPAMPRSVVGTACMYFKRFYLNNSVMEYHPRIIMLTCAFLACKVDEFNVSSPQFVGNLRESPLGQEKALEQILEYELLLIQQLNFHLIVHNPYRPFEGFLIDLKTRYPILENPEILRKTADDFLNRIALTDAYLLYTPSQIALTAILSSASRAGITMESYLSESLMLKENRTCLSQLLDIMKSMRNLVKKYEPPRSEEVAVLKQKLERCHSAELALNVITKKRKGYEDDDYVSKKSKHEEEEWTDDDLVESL
Sequence of CDK7/cyclinH/MAT1 complex (P51948 whole entry partner, species assumed): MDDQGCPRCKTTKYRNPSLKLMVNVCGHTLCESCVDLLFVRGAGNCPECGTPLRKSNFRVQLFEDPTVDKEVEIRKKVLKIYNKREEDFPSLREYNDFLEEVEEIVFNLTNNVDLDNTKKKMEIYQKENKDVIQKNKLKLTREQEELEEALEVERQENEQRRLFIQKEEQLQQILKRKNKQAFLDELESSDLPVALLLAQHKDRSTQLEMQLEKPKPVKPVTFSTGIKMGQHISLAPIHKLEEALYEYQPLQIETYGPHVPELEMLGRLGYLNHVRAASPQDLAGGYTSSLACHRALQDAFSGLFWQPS
Sequence of CDK9/cyclinT1 complex (P50750 whole entry, species assumed): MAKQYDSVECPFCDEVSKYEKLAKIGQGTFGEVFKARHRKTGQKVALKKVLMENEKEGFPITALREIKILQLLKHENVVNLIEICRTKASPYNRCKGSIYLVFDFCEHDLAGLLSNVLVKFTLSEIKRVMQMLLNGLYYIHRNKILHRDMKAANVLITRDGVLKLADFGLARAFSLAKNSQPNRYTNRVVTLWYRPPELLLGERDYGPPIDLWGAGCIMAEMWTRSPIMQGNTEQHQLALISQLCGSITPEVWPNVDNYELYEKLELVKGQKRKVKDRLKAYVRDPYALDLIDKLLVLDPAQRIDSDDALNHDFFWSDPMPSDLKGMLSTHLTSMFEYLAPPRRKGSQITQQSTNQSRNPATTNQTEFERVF
Sequence of CDK9/cyclinT1 complex (O60563 whole entry partner, species assumed): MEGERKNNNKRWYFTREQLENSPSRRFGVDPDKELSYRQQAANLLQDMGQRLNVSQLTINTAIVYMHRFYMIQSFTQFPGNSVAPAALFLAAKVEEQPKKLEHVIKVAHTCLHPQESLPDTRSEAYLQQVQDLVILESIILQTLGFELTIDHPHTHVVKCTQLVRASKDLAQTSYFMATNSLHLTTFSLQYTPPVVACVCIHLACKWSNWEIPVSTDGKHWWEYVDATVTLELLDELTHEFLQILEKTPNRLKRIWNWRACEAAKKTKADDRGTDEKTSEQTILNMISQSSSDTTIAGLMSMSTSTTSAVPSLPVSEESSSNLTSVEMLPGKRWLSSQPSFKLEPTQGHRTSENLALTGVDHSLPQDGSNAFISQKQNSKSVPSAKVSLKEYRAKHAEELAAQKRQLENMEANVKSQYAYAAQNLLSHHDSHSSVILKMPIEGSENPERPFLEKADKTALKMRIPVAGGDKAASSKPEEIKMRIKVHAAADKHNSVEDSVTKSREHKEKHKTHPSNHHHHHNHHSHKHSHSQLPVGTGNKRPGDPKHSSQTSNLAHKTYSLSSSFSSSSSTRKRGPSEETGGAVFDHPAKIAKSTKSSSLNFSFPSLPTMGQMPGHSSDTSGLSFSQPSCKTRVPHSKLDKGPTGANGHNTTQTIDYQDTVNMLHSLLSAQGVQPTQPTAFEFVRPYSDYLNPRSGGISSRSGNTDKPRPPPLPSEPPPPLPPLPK

## CP(C)(=O)c1cccc2c(-c3nc(N[C@H]4CCCNC4)ncc3C(F)(F)F)c[nH]c12 [A control compound WO2018013867 (353), reference compound]
[1]; basal end to top end
  Papp B→A at 2 h, 5 μM: 15.9 ×10⁻⁶ cm/s
[1]; read-out: ER (efflux rate)
  efflux ratio at 2 h, 5 μM: 70.7
[1]; top end to basal end
  Papp A→B at 2 h, 5 μM: 0.23 ×10⁻⁶ cm/s

## CP(C)(=O)c1cccc2c(-c3nc(N[C@@H]4COCC[C@H]4O)ncc3C(F)(F)F)c[nH]c12 [Compound 167]
[2]
  IC50: 200 to 5000 nM
[3]
  IC50: > 50000 nM
[4]
  IC50: > 50000 nM
[5]
  IC50: 200 to 5000 nM
[6]
  IC50: 20 to 200 nM
[7]
  IC50: > 50000 nM

## C[C@@H](O)CNc1ncc(C(F)(F)F)c(-c2c[nH]c3c(P(C)(C)=O)cccc23)n1 [Compound 172, (R)-(3-(2-((2-hydroxypropyl)amino)-5-(trifluoromethyl)pyrimidin-4-yl)-1H-indole-7-yl)dimethylphosphine oxide]
[2]
  IC50: 20 to 200 nM
[3]
  IC50: > 50000 nM
[4]
  IC50: 200 to 5000 nM
[5]
  IC50: 20 to 200 nM
[6]
  IC50: 20 to 200 nM
[7]
  IC50: > 50000 nM

## C[C@H](O)CNc1ncc(C(F)(F)F)c(-c2c[nH]c3c(P(C)(C)=O)cccc23)n1 [Compound 173, (S)-(3-(2-((2-hydroxypropyl)amino)-5-(trifluoromethyl)pyrimidin-4-yl)-1H-indole-7-yl)dimethylphosphine oxide]
[2]
  IC50: 20 to 200 nM
[3]
  IC50: > 50000 nM
[4]
  IC50: 5000 to 50000 nM
[5]
  IC50: 20 to 200 nM
[6]
  IC50: < 20 nM
[7]
  IC50: > 50000 nM

## CP(C)(=O)c1cccc2c(-c3nc(NCC4(O)CCOCC4)ncc3C(F)(F)F)c[nH]c12 [Compound 175]
[2]
  IC50: 200 to 5000 nM
[3]
  IC50: > 50000 nM
[4]
  IC50: 5000 to 50000 nM
[5]
  IC50: 20 to 200 nM
[6]
  IC50: 20 to 200 nM
[7]
  IC50: > 50000 nM

## C[C@@H](CO)Nc1ncc(Br)c(-c2c[nH]c3c(P(C)(C)=O)cccc23)n1 [Compound 177, (S)-(3-(5-bromo-2-((1-hydroxypropan-2-yl)amino)pyrimidin-4-yl)-1H-indole-7-yl)dimethylphosphine oxide]
[2]
  IC50: < 20 nM
[3]
  IC50: 5000 to 50000 nM
[4]
  IC50: 200 to 5000 nM
[5]
  IC50: < 20 nM
[6]
  IC50: < 20 nM
[7]
  IC50: 5000 to 50000 nM

## Cc1cnc(N[C@@H](C)CO)nc1-c1c[nH]c2c(P(C)(C)=O)cccc12 [Compound 178]
[2]
  IC50: 20 to 200 nM
[3]
  IC50: > 50000 nM
[4]
  IC50: 5000 to 50000 nM
[5]
  IC50: 200 to 5000 nM
[6]
  IC50: 20 to 200 nM
[7]
  IC50: > 50000 nM

## C[C@@H](CO)Nc1ncc(C(F)(F)F)c(-c2c[nH]c3nc(C4=CCOCC4)ccc23)n1 [Compound 181, (S)-2-((4-(6-(3,6-dihydro-2H-pyran-4-yl)-1H-pyrrolo[2,3-b]pyridin-3-yl)-5-(trifluoromethyl)pyrimidin-2-yl)amino)propan-1-ol]
[2]
  IC50: 20 to 200 nM
[3]
  IC50: 5000 to 50000 nM
[4]
  IC50: 200 to 5000 nM
[5]
  IC50: 200 to 5000 nM
[6]
  IC50: 20 to 200 nM
[7]
  IC50: > 50000 nM

## CP(C)(=O)c1cccc2c(-c3nc(NC(CO)CO)ncc3C(F)(F)F)c[nH]c12 [Compound 194, (3-(2-((1,3-dihydroxypropan-2-yl)amino)-5-(trifluoromethyl)pyrimidin-4-yl)-1H-indole-7-yl)dimethylphosphine oxide]
[2]
  IC50: < 20 nM
[3]
  IC50: > 50000 nM
[4]
  IC50: 5000 to 50000 nM
[5]
  IC50: 20 to 200 nM
[6]
  IC50: < 20 nM
[7]
  IC50: > 50000 nM
